In article PMC6273431, “The Structure–Antimicrobial Activity Relationships of a Promising Class of the Compounds Containing the N-Arylpiperazine Scaffold” (Molecules, 2016):
Read-outs that look alike come from different tables or passages of the source.

How the values were obtained:
[1] = test system: Mycobacterium avium subsp. paratuberculosis CIT03; assay: antimycobacterial MIC, MB broth, alamarBlue; format: cell-based; conditions: 264 h, read-out: MIC MAP
Description: The Mycobacterium avium subsp. paratuberculosis CIT03 strain was grown in the Middlebrook (MB) broth, supplemented with the Oleic-Albumin-Dextrose-Catalase Supplement (OADC, Becton Dickinson, Oxford, UK) and the mycobactin J (2 μg/mL). The commercially available siderophore mycobactin J reduced the incubation period of M. avium subsp. paratuberculosis in a complex medium when compared to the medium containing the mycobactin P as a growth factor.
The identification of the isolate was performed using biochemical and molecular protocols. At a log phase growth, a culture sample (10 mL) was centrifuged at 15,000 rpm/20 min using a bench top centrifuge (Model CR 4-12, Jouan Inc., London, UK). Following removal of the supernatant, the pellet was washed in fresh Middlebrook 7H9GC broth and re-suspended in fresh supplemented MB broth (10 mL). The turbidity was adjusted to match the McFarland standard No. 1 containing approximately 3.0 × 10^8 Colony Forming Units (CFU) with the MB broth. Further 1:20 dilution of the culture was performed in the MB broth. The susceptibility of given mycobacterial species was investigated in a 96-well plate format. In those experiments, sterile deionised water (300 μL) was added to all outer-perimeter wells of the plates to minimize an evaporation of the medium in the test wells during the incubation process. Each evaluated compound (100 μL) was incubated with the mycobacterial species (100 μL). The dilutions of a particular compound were prepared in triplicate. For all inspected derivatives, final concentrations ranged from 1000 μg/mL to 60 μg/mL. All compounds were prepared in dimethyl sulfoxide (DMSO; Sigma-Aldrich, Irvine, UK) and subsequent dilutions were made in the supplemented MB broth. The plates were sealed with a parafilm and incubated at 37 °C for 11 days. Following the incubation, a 10% addition of a water‑soluble dye, the alamarBlue reagent (AbD Serotec, Kidlington, UK), was mixed into each well. Absorbance readings at 570 nm and 600 nm were taken, initially for background subtraction and after 24 h re-incubation. The subtraction is necessary for strongly coloured compounds, where the colour may interfere with the interpretation of any colour change. For non-interfering compounds, a blue colour in a well was interpreted as an absence of a growth and a pink colour was scored as a growth.
The minimum inhibitory concentration (MIC) was defined as the lowest concentration of the compound at which no visible bacterial growth was observed. In other words, the MIC was the lowest concentration that prevented a visual colour change from blue to pink. The MIC value has been routinely and widely used in bacterial assays and it has been a standard detection limit according to the Clinical and Laboratory Standards Institute. The clinically used antimycobacterial drugs INH and RIF were applied as the standards.

M. smegmatis ATCC 700084 = assay: antimycobacterial MIC, broth dilution micromethod; format: cell-based; conditions: Mycolicibacterium smegmatis, ATCC700084, 72 h, 3 days at 37 °C
M. kansasii DSM 44162 = assay: antimycobacterial MIC, broth dilution micromethod; format: cell-based; conditions: Mycobacterium kansasii, DSM44162, 168 h, 7 days at 37 °C
M. marinum CAMP 5644 = assay: antimycobacterial MIC, broth dilution micromethod; format: cell-based; conditions: Mycobacterium marinum, CAMP5644, 504 h, 21 days at 28 °C
[2] = test system: Enterococcus faecalis ATCC 29212; assay: antibacterial MIC, microtitration broth method; format: cell-based; conditions: 37 °C
Description: (§1) Prior to the testing, each strain was transferred into a nutrient agar (Oxoid Limited, Basingstoke, UK), which was enriched with 5% defibrinated bovine blood.
(§2) The MICs were determined by the microtitration broth method in the cation-adjusted Mueller-Hinton broth (Becton Dickinson, Oxford, UK) according to an international interdisciplinary Clinical Laboratory Standard Institute guidelines.
(§3) The checkerboard was inoculated by the bacterial inocula, which were prepared in a phosphate buffered saline solution with the pH = 7.2–7.3 to simulate physiological pH. The final concentration of each inoculum in the final volume of 100 μL in the wells was approximately 7.5 × 10^6 CFU/mL. Drug-free controls, sterility controls and the controls consisted of the broth with DMSO were included. The determination of the results was performed visually after 24 h of static incubation in the darkness at 37 °C in an aerobic atmosphere.
(§4) To ensure reproducibility, each antibacterial MIC assay was performed triplicate on separate occasions.

[3] = test system: Escherichia coli ATCC 25922; assay: antibacterial MIC, microtitration broth method; format: cell-based; conditions: 37 °C
Description: as §1, §2, §3, §4

[4] = test system: Staphylococcus aureus ATCC 29213; assay: antibacterial MIC, microtitration broth method; format: cell-based; conditions: 37 °C
Description: as §1, §2, §3, §4

[5] = test system: methicillin-resistant Staphylococcus aureus 63718; assay: antibacterial MIC, microtitration broth method; format: cell-based; conditions: MRSA, 37 °C
Description: as §1, §2, §3, §4

[6] = test system: Candida albicans CCM 8261; assay: candidacidal MIC, microdilution method; format: cell-based; conditions: 48 h, 37 °C
Description: (§5) In order to provide a look into the potential usefulness of the derivatives 5a–l as the candidates for a development of anti-yeast (candidacidal) agents, they were in vitro tested against Candida albicans CCM 8261 (CA 8261), C. krusei CCM 8271 (CK 8271) and C. parapsilosis CCM 8260 (CP 8260). The yeasts were obtained from the Czech Collection of Microorganisms (Masaryk University, Faculty of Science, Brno, Czech Republic). They were grown and kept on Sabouraud agar (Oxoid Limited, Basingstoke, UK).
(§6) For the screening, the microdilution method according to the Antimicrobial Susceptibility Testing Protocols was applied. The inoculum was prepared from the cultures grown on Sabouraud agar. With the sterile solution of NaCl, the inoculum was prepared to the 0.5 McFarland units using the Densi-La-Meter densitometer (LIAP, Riga, Latvia) and diluted a thousand‑fold with the Roswell Park Memorial Institute (RPMI) 1640 medium (Sigma-Aldrich, Darmstadt, Germany). Prepared suspension was used for an inoculation of microtitre plates. Final concentration in wells ranged from 5.0 × 10^2 CFU/mL to 2.5 × 10^3 CFU/mL. […] For the determination of the MICs, the stock solutions of all the tested compounds were diluted in the microtitre checkerboard to the final concentration varying from 128 μg/mL to 0.125 μg/mL. Drug-free control, sterility control and the control consisted of a medium and DMSO alone were included. Inoculated microtitre plates were incubated for 48 h in the darkness at 37 °C in an aerobic atmosphere. The results were estimated against static light.
(§7) The MIC was defined as the lowest concentration of the tested compound at which no visible growth was observed. To ensure reproducibility of the results, each candidacidal MIC assay was performed triplicate on separate occasions. It was important to note that all the MICs from the in vitro antimicrobial screening were expressed in μg/mL units and were available in Tables S3 and S4 (Supplementary Materials).

Candida krusei CCM 8271 = assay: candidacidal MIC, microdilution method; format: cell-based; conditions: 48 h, 37 °C
Description: as §5, §6, §7

[7] = test system: Candida parapsilosis CCM 8260; assay: candidacidal MIC, microdilution method; format: cell-based; conditions: 48 h, 37 °C
Description: as §5, §6, §7

[8] = set-up: method as in PMID 16209439, PMID 16209439; conditions: potentiometric titration; cited from earlier work
[9] = set-up: method as in PMID 16209439, PMID 16209439, doi:10.2478/s11696-006-0007-y; conditions: octan-1-ol/phosphate buffer (pH = 7.4); cited from earlier work
[10] = Candida albicans, CCM8261, Table S4
[11] = Pichia kudriavzevii, CCM8271, Table S4
[12] = Lodderomyces parapsilosis, CCM8260
[13] = Lodderomyces parapsilosis, CCM8260, Table S4

| Structure (SMILES) | MIC ([1]; 37 °C, 11 days) | MIC [1] | MIC (M. smegmatis ATCC 700084) | MIC (M. smegmatis ATCC 700084; Table S3) | MIC (M. kansasii DSM 44162) | MIC (M. kansasii DSM 44162; Table S3) | MIC (M. marinum CAMP 5644) | MIC (M. marinum CAMP 5644; Table S3) | MIC ([2]; ATCC29212, 24 h) | MIC ([2]; ATCC29212, Table S4, 24 h) | MIC ([3]; ATCC25922, 24 h) | MIC ([3]; ATCC25922, Table S4, 24 h) | MIC ([4]; ATCC29213, 24 h) | MIC ([4]; ATCC29213, Table S4, 24 h) | MIC ([5]; 24 h) | MIC ([5]; Table S4, 24 h) | MIC ([6]; Candida albicans, CCM8261) | MIC [6, 10] | MIC (Candida krusei CCM 8271; Pichia kudriavzevii, CCM8271) | MIC [7, 12] | other results |
| --- | --- | --- | --- | --- | --- | --- | --- | --- | --- | --- | --- | --- | --- | --- | --- | --- | --- | --- | --- | --- | --- |
| COc1ccc(NC(=O)OCC(O)CN2CCN(c3cccc(C(F)(F)F)c3)CC2)cc1 (stereo not shown) [Compound 5e, 1-{2-hydroxy-3-(4-methoxyphenylcarbamoyl)oxy)propyl}-4-(3-trifluoromethylphenyl)piperazin-1-ium chloride] | 1020 µM | 500 µg/mL | 523 µM | 256 µg/mL | 65.3 µM | 32 µg/mL | 65.3 µM | 32 µg/mL | > 523 µM | > 256 µg/mL | > 523 µM | > 256 µg/mL | > 523 µM | > 256 µg/mL | > 523 µM | > 256 µg/mL | > 261 µM | > 128 µg/mL | > 261 µM | > 261 µM | MIC (Candida krusei CCM 8271; [11]): > 128 µg/mL; MIC [7, 13]: > 128 µg/mL; pKa [8]: 5.66; log Pexp [9]: 3.60 |
| CO[C@H]1/C=C/O[C@@]2(C)Oc3c(C)c(O)c4c(O)c(c(/C=N/N5CCN(C)CC5)c(O)c4c3C2=O)NC(=O)/C(C)=C\C=C\[C@H](C)[C@H](O)[C@@H](C)[C@@H](O)[C@@H](C)[C@H](OC(C)=O)[C@@H]1C [RIF, rifampicin, reference compound] | 109 µM | 60 µg/mL | 19.4 µM | 0.125 µg/mL | 0.15 µM | 0.5 µg/mL | 2.43 µM | 0.25 µg/mL | – | – | – | – | – | – | – | – | – | – | – | – | – |
| COc1cccc(NC(=O)OCC(O)CN2CCN(c3ccc(F)cc3)CC2)c1 (stereo not shown) [Compound 5i] | 1140 µM | 500 µg/mL | 582 µM | 256 µg/mL | 145 µM | 64 µg/mL | 291 µM | 128 µg/mL | > 582 µM | > 256 µg/mL | > 582 µM | > 256 µg/mL | > 582 µM | > 256 µg/mL | > 582 µM | > 256 µg/mL | > 291 µM | > 128 µg/mL | > 291 µM | > 291 µM | MIC (Candida krusei CCM 8271; [11]): > 128 µg/mL; MIC [7, 13]: > 128 µg/mL; pKa [8]: 6.55; log Pexp [9]: 3.25 |
| CCOc1ccc(NC(=O)OCC(O)CN2CCN(c3cccc(C(F)(F)F)c3)CC2)cc1 (stereo not shown) [Compound 5f] | 992 µM | 500 µg/mL | 508 µM | 256 µg/mL | 508 µM | 256 µg/mL | 254 µM | 128 µg/mL | > 508 µM | > 256 µg/mL | > 508 µM | > 256 µg/mL | > 508 µM | > 256 µg/mL | > 508 µM | > 256 µg/mL | > 254 µM | > 128 µg/mL | > 254 µM | > 254 µM | MIC (Candida krusei CCM 8271; [11]): > 128 µg/mL; MIC [7, 13]: > 128 µg/mL; pKa [8]: 5.69; log Pexp [9]: 3.71 |
| C[C@@H]1[C@H](O)[C@@H](C)/C=C/C=C/C=C/C=C/C=C/C=C/C=C/[C@H](O[C@@H]2O[C@H](C)[C@@H](O)[C@H](N)[C@@H]2O)C[C@@H]2O[C@](O)(C[C@@H](O)C[C@@H](O)[C@H](O)CC[C@@H](O)C[C@@H](O)CC(=O)O[C@H]1C)C[C@H](O)[C@H]2C(=O)O [Amph. B, amphotericin B, reference compound] | – | – | – | – | – | – | – | – | – | – | – | – | – | – | – | – | 0.54 µM | – | 0.54 µM | 1.08 µM | – |
| Nc1nc(=O)[nH]cc1F [Compound 5-FC, 5-flucytosine, reference compound] | – | – | – | – | – | – | – | – | – | – | – | – | – | – | – | – | – | – | – | – | MIC [6]: 7.69 µM; MIC CA ([6]; Table S4): 1 µg/mL; MIC (Candida krusei CCM 8271): 0.96 µM; MIC CK (Candida krusei CCM 8271; Table S4): 0.125 µg/mL; MIC [7]: 61.50 µM; MIC CP ([7]; Table S4): 8 µg/mL |
| CC1(C)S[C@@H]2[C@H](NC(=O)[C@H](N)c3ccccc3)C(=O)N2[C@H]1C(=O)O [AMP, ampicillin, reference compound] | – | – | – | – | – | – | – | – | > 45.8 µM | > 16 µg/mL | > 45.8 µM | > 16 µg/mL | 5.72 µM | 2 µg/mL | > 45.8 µM | > 16 µg/mL | – | – | – | – | – |
| NNC(=O)c1ccncc1 [INH, isoniazid, reference compound] | 1820 µM | 250 µg/mL | 117 µM | 16.1 µg/mL | – | – | 467 µM | 64 µg/mL | – | – | – | – | – | – | – | – | – | – | – | – | – |
